Assay results taken from patent US12024498B2, “Radical compounds and methods of using thereof” (OHIO STATE INNOVATION FOUNDATION, priority 2017, dated 2024).
Read-outs that look alike come from different tables or passages of the source.

Biological target: 13C,15N-wt-huPrP23-144 fibrils (Homo sapiens, UniProt P04156)
[1] = 12 mM biradical in 6:3:1 d8-glycerol/D2O/H2O, 12 kHz MAS

Chain of 13C,15N-wt-huPrP23-144 fibrils (P04156 23-144 limits assumed): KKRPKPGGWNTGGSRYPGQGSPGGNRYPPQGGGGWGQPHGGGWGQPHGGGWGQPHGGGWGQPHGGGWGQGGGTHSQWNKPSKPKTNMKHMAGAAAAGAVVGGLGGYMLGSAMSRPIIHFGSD

Substance: TOAC-TOAC-Ser [TTS]
- Optimal recycle delay (12 mM biradical in 6:3:1 d8-glycerol/D2O/H2O): 1.52 s
- 1H T1 [1]: 1.29 s
- εDNP [1]: 18-25
- τDNP [1]: 1.21 s
- τDNP (12 mM biradical, huPrP23-144 fibril samples): 2 s
